Source: patent US20250320227A1, “MACROCYCLIC OREXIN RECEPTOR AGONISTS AND USES THEREOF” (Jazz Pharmaceuticals Ireland Limited, priority 2022, published 2025)

Target: T1, human recombinant OX2 (hOX2) receptors expressed in CHO cells (Homo sapiens, UniProt O43614)
T1 construct: host or cells: CHO cells (hOX2-CHO)
T1 sequence (O43614 1-444): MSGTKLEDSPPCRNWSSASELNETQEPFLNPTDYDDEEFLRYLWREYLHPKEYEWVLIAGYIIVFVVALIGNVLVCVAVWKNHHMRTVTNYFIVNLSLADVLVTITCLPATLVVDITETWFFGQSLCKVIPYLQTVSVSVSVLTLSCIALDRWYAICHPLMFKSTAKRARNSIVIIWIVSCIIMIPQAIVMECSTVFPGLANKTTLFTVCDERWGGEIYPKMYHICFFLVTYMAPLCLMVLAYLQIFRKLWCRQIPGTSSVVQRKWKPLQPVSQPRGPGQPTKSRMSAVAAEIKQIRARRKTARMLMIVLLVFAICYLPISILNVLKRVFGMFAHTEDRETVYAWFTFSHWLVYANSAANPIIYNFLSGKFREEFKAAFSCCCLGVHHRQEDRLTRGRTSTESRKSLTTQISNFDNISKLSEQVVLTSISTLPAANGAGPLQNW
Test: IP-1 accumulation assay (IP-One HTRF) in hOX2-CHO cells
Format: cell-based
Settings: 60 min incubation at 37° C., mean of at least two independent experiments, read-out: EC50_OX2R Category
Method: The accumulation of Inositol-1 Monophosphate (IP-1) was measured using IP-One HTRF® Terbium cryptate based assay (Cisbio) in human recombinant OX1 (hOX1) and at OX2 (hOX2) receptors expressed in CHO cells (DiscoverX) according to the manufacturer's instructions for cells tested in suspension.
hOX1-CHO and hOX2-CHO cells were seeded into white 384-well plates at a density of 20,000 cells/well in Hank's Balanced Salt Solution (HBSS) containing 20 mM HEPES pH 7.4, 50 mM, LiCl and 0.1% and Bovine Serum Albumin (BSA).
Compounds of disclosure were tested in an 11 points concentration response curve (CRC) serially diluted in neat DMSO at 200 fold concentrations and added by Echo acoustic liquid handling (Labcyte) to the cells (0.5% DMSO final in the assay). After 60 min of incubation at 37° C. detection reagents, IP1-d2 tracer and anti-IP1-cryptate were diluted in lysis buffer according to the manufacturer's descriptions and added to the cells.
Following 60 min incubation at room temperature, time-resolved fluorescence (HTRF) was measured at 615 nm and 665 nm by Envision Multilabel reader (Perkin Elmer) and the HTRF ratio (A665/A615×10^4) was calculated.
The IP-1 accumulation response was expressed as percentage of the maximal OX-A response.
Curve fitting and EC50 estimations were carried out using a four-parameter logistic model using XLfit Software. Mean data of EC50 are calculated from at least two independent experiments performed in duplicates

| EC50 | SMILES |
| --- | --- |
| 100 to 1000 nM | C[C@H]1CC(=O)N2CC[C@@]3(COCC(=O)N3)[C@@H]2CO[C@H]2CC[C@H](CC2)c2ccccc2O1 (single isomer, unassigned) [Example 4b, (1′s, 3S,9′S,16′R,19′s)-9′-methyl-8′,18′-dioxa-12′-azaspiro[morpholine-3,15′-tetracyclo[17.2.2.0^2,70.0^12,16]tricosane]-2′(7′),3′,5′-triene-5,11′-dione] |
| > 10000 nM | O=C1COCC2(CCCN3C(=O)CCCCc4ccccc4-c4cccc(c4F)CC32)N1 (racemic) [Example 62, Rel-(3S, 18′S)-24′-fluoro-13′-azaspiro[morpholine-3,17′-tetracyclo[18.3.1.0^2,70.0^13,18]tetracosane]-1′(24′),2′(7′),3′,5′,20′,22′-hexaene-5,12′-dione] |
| < 100 nM | O=C1COC[C@@]2(CCCN3C(=O)COc4cc(F)cc(F)c4[C@H]4CC[C@H](CC4)OC[C@H]32)N1 (single isomer, unassigned) [Example 42a] |
| < 100 nM | C[C@@H]1CC2(COCC(=O)N2)C2CO[C@H]3CC[C@H](CC3)c3ccccc3OCCCC(=O)N21 (mixture of isomers) [Example 14, (1′s,14′R,20's)-14′-methyl-8′,19′-dioxa-13′-azaspiro[morpholine-3,16′-tetracyclo[18.2.2.0^2,70.0^13,17]tetracosane]-2′(7′),3′,5′-triene-5,12′-dione] |
| < 100 nM | Cc1ccc2c(c1)[C@H]1CC[C@H](CC1)OC[C@@H]1N(C(=O)CO2)[C@H](C)C[C@@]12COCC(=O)N2 (single isomer, unassigned) [Example 22a] |
| < 100 nM | O=C1COC[C@@]2(CCCN3C(=O)COc4cccc(F)c4[C@H]4CC[C@H](CC4)OC[C@H]32)N1 (single isomer, unassigned) [Example 40a] |
| < 100 nM | O=C1COC[C@@]2(CCCN3C(=O)COc4ncccc4[C@H]4CC[C@H](CC4)OC[C@H]32)N1 (single isomer, unassigned) [Example 45a] |
| < 100 nM | O=C1COCC2(CCCN3C(=O)CCOc4ccc(F)cc4[C@H]4CC[C@H](CC4)OCC32)N1 (mixture of isomers) [Example 49, Rel-(1′s,3S,17′R,20′s)-4′-fluoro-8′,19′-dioxa-12′-azaspiro[morpholine-3,16′-tetracyclo[18.2.2. 0^2,^7.0^12,^17]tetracosane]-2′(7′),3′,5′-triene-5,11′-dione] |
| > 10000 nM | CC1Oc2ccccc2[C@H]2CC[C@H](CC2)OC[C@H]2N(CCC[C@]23COCC(=O)N3)C1=O (single isomer, unassigned) [Example 35b] |
| 1000 to 10000 nM | C[C@@H]1C[C@]2(COCC(=O)N2)[C@H]2CO[C@H]3CC[C@H](CC3)c3cccnc3OCC(=O)N12 (single isomer, unassigned) [Example 23b] |
| > 10000 nM | O=C1COC[C@]2(CCN3C(=O)CCOc4cccc(F)c4[C@H]4CC[C@H](CC4)OC[C@@H]32)N1 (single isomer, unassigned) [Example 10b] |
| < 100 nM | O=C1COC[C@@]2(CCCN3C(=O)CCOc4c(F)cc(F)cc4[C@H]4CC[C@H](CC4)OC[C@H]32)N1 (single isomer, unassigned) [Example 50a] |
| 100 to 1000 nM | O=C1COc2ccccc2[C@H]2CC[C@H](CC2)OCC2N1CCCC21COC(C(F)(F)F)N1 (mixture of isomers) [Example 70, Rel-(1′s,3S,16′R,19′s)-5-(trifluoromethyl)-8′,18′-dioxa-11′-azaspiro[1,4-oxazolidine-3,15′-tetracyclo[17.2.2.0^2,70.0^11,16]tricosane]-2′(7′),3′,5′-trien-10′-one] |
| < 100 nM | O=C1COCC2(CCCN3C(=O)OCCCOc4cccc(c4)[C@H]4CC[C@H](CC4)OCC32)N1 (mixture of isomers) [Example 54, Rel-(1′s,3S,18′R,21′s)-7′,11′,20′-trioxa-13′-azaspiro[morpholine-3,17′-tetracyclo[19.2.2.1^2,60.0^13,18]hexacosane]-2′(26′),3′,5′-triene-5,12′-dione] |
| > 10000 nM | O=C1COCC2(CCCN3C(=O)CCOc4cccnc4[C@H]4CC[C@H](CC4)OCC32)N1 (mixture of isomers) [Example 51, Rel-(1′s,3S,17′R,20′s)-8′,19′-dioxa-3′,12′-diazaspiro [morpholine-3,16′-tetracyclo[18.2.2. 0^2,^7.0^12,^17]tetracosane]-2′(7′),3′,5′-triene-5,11′-dione] |
| > 10000 nM | O=C1COC[C@]2(CCCN3C(=O)COc4ccccc4[C@H]4CC[C@H](CC4)OC[C@@H]32)N1 (single isomer, unassigned) [Example 32b] |

| EC50 | SMILES |
| --- | --- |
| < 100 nM | O=C1COC[C@@]2(CCCN3C(=O)OCCOc4cccc(c4)[C@H]4CC[C@H](CC4)OC[C@H]32)N1 (single isomer, unassigned) [Example 53a] |
| > 10000 nM | O=C1COC[C@]2(CCCN3C(=O)COc4ccc(F)c(F)c4[C@H]4CC[C@H](CC4)OC[C@@H]32)N1 (single isomer, unassigned) [Example 43b] |
| < 100 nM | O=C1N[C@]2(CCCN3C(=O)COc4ccccc4[C@H]4CC[C@H](CC4)OC[C@H]32)COC1F (single isomer, unassigned) [Example 56a] |
| < 100 nM | C[C@@H]1C[C@@]2(COCC(=O)N2)[C@@H]2CO[C@H]3CC[C@H](CC3)c3ccccc3OCC(=O)N12 [Example 12a, (1′s,3S,12′R,15′R,18′s)-12′-methyl-8′,17′-dioxa-11′-azaspiro[morpholine-3,14′-tetracyclo[16.2.2.0^2,70.0^11,15]docosane]-2′(7′),3′,5′-triene-5,10′-dione] |
| 100 to 1000 nM | C[C@@H]1C[C@]2(COCC(=O)N2)[C@H]2CO[C@H]3CC[C@H](CC3)c3ccccc3OCC(=O)N12 [Example 12b, (1′s,3R,12′R,15′S, 18′s)-12′-methyl-8′,17′-dioxa-11′-azaspiro[morpholine-3,14′-tetracyclo[16.2.2.0^2,70.0^11,15]docosane]-2′(7′),3′,5′-triene-5,10′-dione] |
| 1000 to 10000 nM | C[C@@H]1CC2(COCC(=O)N2)C2Cc3cccc(c3F)-c3ccccc3OCCN(C)C(=O)N21 (mixture of isomers) [Example 30, (14′R)-23′-fluoro-11′,14′-dimethyl-8′-oxa-11′,13′-diazaspiro[morpholine-3,16′-tetracyclo[17.3.1.0^2,70.0^13,17]tricosane]-1′(23′),2′(7′),3′,5′,19′,21′-hexaene-5,12′-dione] |
| 1000 to 10000 nM | CN1CCOc2ccccc2-c2cccc(c2F)CC2N(CCCC23COCC(=O)N3)C1=O (racemic) [Example 63, Rel-(3S,18′S)-24′-fluoro-11′-methyl-8′-oxa-11′,13′-diazaspiro[morpholine-3,17′-tetracyclo[18.3.1.0^2,70.0^13,18]tetracosane]-1′(24′),2′(7′),3′,5′,20′,22′-hexaene-5,12′-dione] |
| < 100 nM | O=C1NC2(CCN3C(=O)CCOc4ccccc4[C@H]4CC[C@H](CC4)OCC32)COC1F (relative stereo) [Example 8, rel-(1′s,3S,16′R,19′s)-6-fluoro-8′,18′-dioxa-12′-azaspiro[morpholine-3,15′-tetracyclo[17.2.2.0^2,70.0^12,16]tricosane]-2′(7′),3′,5′-triene-5,11′-dione] |
| > 10000 nM | O=C1COC[C@]2(CCN3C(=O)CCOc4ccccc4[C@H]4CC[C@H](CC4)OC[C@@H]32)N1 (single isomer, unassigned) [Example 1b] |
| 100 to 1000 nM | O=C1COC[C@]2(CCCN3C(=O)CCOc4c(F)cc(F)cc4[C@H]4CC[C@H](CC4)OC[C@@H]32)N1 (single isomer, unassigned) [Example 50b] |
| < 100 nM | O=C1COc2ccccc2[C@H]2CC[C@H](CC2)OC[C@@H]2N1CCC[C@@]21CCCS(=O)(=O)N1 (single isomer, unassigned) [Example 59a] |
| 1000 to 10000 nM | O=C1COC[C@]2(CCCN3C(=O)COc4ccc(F)cc4[C@H]4CC[C@H](CC4)OC[C@@H]32)N1 (single isomer, unassigned) [Example 41b] |
| < 100 nM | C[C@@H]1C[C@@]2(COCC(=O)N2)[C@@H]2CO[C@H]3CC[C@H](CC3)c3ccccc3OCCC(=O)N12 (single isomer, unassigned) [Example 13a] |
| < 100 nM | O=C1COC[C@@]2(CCCN3C(=O)COc4ccc(F)cc4[C@H]4CC[C@H](CC4)OC[C@H]32)N1 (single isomer, unassigned) [Example 41a] |
| > 10000 nM | O=C1COC[C@]2(CCCN3C(=O)OCCOc4cccc(c4)[C@H]4CC[C@H](CC4)OC[C@@H]32)N1 (single isomer, unassigned) [Example 53b] |
| < 100 nM | O=C1COC[C@]2(CCCN3C(=O)CCOc4c(F)cccc4[C@H]4CC[C@H](CC4)OC[C@@H]32)N1 (single isomer, unassigned) [Example 48b] |
